From US6255337A, “Anti-first-pass effect compounds and citrus extract” (Bioavailability Systems, L.L.C., priority 1999, dated 2001)
“Also recorded” adds a separate entry of the source. Where two headings read alike, the source gives them in different places.

Experiments:
human cytochrome P450 = experiment: Protocol C: Assessment of human cytochrome P450-mediated biotransformation (terfenadine, human hepatic S9); type: in vitro ADME
Experimental: The process of preparing incubation mixtures begins by mixing 10 uL of ethanol or an ethanolic solution containing an inhibitor with 100 uL of 100 mg/mL bovine serum albumin (Sigma) dissolved in reaction buffer at room temperature. Reaction buffer is composed of 0.10 M sodium phosphate, 1.0 mM ethylenediaminetetraacetic acid, and 5.0 mM magnesium chloride, pH 7.4 (all reagents: Fisher Scientific). Inhibitory chemicals used were ketoconazole (Research Diagnostics, Inc.), miconazole, bergapten, xanthotoxin (previous three from Sigma), bergamotin, imperatorin, isopimpinellin, psoralen, angelicin (previous five from Indofine Chemical Company, Inc.), and fractions or precipitates resulting from Protocols A and B above. When possible, final inhibitor concentrations were expressed in molarity by calculation from the weighed material or by interpolation from HPLC calibration curves prepared with reference materials; otherwise, concentrations are expressed as weight per volume. Reaction tubes are placed on ice in preparation for the manipulations that follow. Sufficient reaction buffer is added so that the final volume of each tube will be 500 uL, 5 uL of a 100-fold concentrate for generating reduced nicotinamide adenine dinucleotide phosphate is added (such that completed reaction mixture contains 1.0 mM nicotinamide adenine dinucleotide phosphate, 1 U/mL glucose-6-phosphate dehvdrogenase, and 10 mM glucose-6-phosphate; all from Sigma), and then human hiepatic S9 (Anatomic Gift Foundation) is thawed and added in sufficient amounts to cause readily detectable amounts of metabolites to be formed in control reactions (amount necessary varies among individuals, but 10 uL is typical).
The samples prepared above are readied for HPLC assessment using the protocol that follows. Each tube is vortex mixed and centrifuged for 10 min at setting 35, the resulting supernatant is transferred to a clean tube, and the liquid is evaporated using a Speed Vac apparatus. The residue in each tube is first dissolved in 40 uL 1:1 acetonitrile:water, 2.5 mL of acetonitrile is added, and the centrifuge-transfer-evaporate step just described is repeated.
The dry residue resulting from the above-described experiments and sample preparation protocol may be analyzed for terfienadine metabolites using the HPLC method described below and may also be used to quantitate the inhibitory chemicals that were added to the reaction (see Protocol B). Linear gradients are used for elution and are formed by mixing mobile phase A composed of water with mobile phase B composed of 0.025% (v/v) formic acid in acetonitrile (instrument: Hewlett Packard). The elution time, in minutes, the percentage of mobile phase B present in the mixed mobile phase, and the flow rate (mL/min) are as follows: 0, 10, 0.10; 2, 10, 0.10; 3.5, 10, 0.20; 4, 10, 0.25; 5, 10, 0.25; 30, 55, 0.25; 32, 98, 0.25; 33, 98, 0.40; 39.8, 98, 0.40; 40, 98, 0.25; 45, 10, 0.25; 45.25, 10, 0.20; 50, 10, 0.20; 50.25, 10, 0.10. The chromatographic column has dimensions of 150 mm length×2.1 mm internal diameter. is packed with a proprietary material (Prism, Keystone Scientific, Inc.), is protected with a 2 mm internal diameter column containing the same material and with a PTFE filter, and is maintained at 35+/-0.2 C. The dry sample residue is mixed with 60 uL of 1:1 acetonitrile:water followed by 40 uL water just prior to each 50.25 min run cycle. The column eluate from each 10 uL injection is monitored for fluorescence with excitation at 228 nm, emission at 291 nm, and bandpass filtration at 280 nm.

[1] = in words; cited from earlier work
first-pass effect = settings: orally administered drugs; in words; cited from earlier work
[2] = tested on: first-pass effect of cyclosporin; settings: heart transplant patients, cyclosporin co-administered with ketoconazole; cited from earlier work
cytochrome P450 = settings: given to humans in large doses; in words; cited from earlier work
[3] = with inhibitors commonly given to humans; in words; cited from earlier work

With `O=c1ccc2ccc3occc3c2o1` [angelicin] the “first-pass effect inhibition (determined herein)” value (from here on “first-pass effect inhibition”) (human cytochrome P450; in words) was “ineffective”.
With `CC(C)=CCC/C(C)=C/COc1c2ccoc2cc2oc(=O)ccc12` [bergamottin] the “first-pass effect inhibition” value (human cytochrome P450) was “ineffective”.
For `COc1c2ccoc2cc2oc(=O)ccc12` [bergapten, 5-methoxypsoralen], the toxicity / phototoxicity [1] is given as “toxic, in particular, phototoxic”.
For `CC[C@H]1OC(=O)[C@H](C)[C@@H](O[C@H]2C[C@@](C)(OC)[C@@H](O)[C@H](C)O2)[C@H](C)[C@@H](O[C@@H]2O[C@H](C)C[C@H](N(C)C)[C@H]2O)[C@](C)(O)C[C@@H](C)C(=O)[C@H](C)[C@@H](O)[C@]1(C)O` [erythromycin], the “inhibition of the first-pass effect” value (first-pass effect) is given as “identified as inhibitors of the first-pass effect”.
In the case of `OC(Cn1cncn1)(Cn1cncn1)c1ccc(F)cc1F` [fluconazole], the “inhibition of the first-pass effect” value (first-pass effect) is listed as “identified as inhibitors of the first-pass effect”.
With `CC(C)=CCOc1c2occc2cc2ccc(=O)oc12` [imperatorin] the “first-pass activity according to Protocol C” value (human cytochrome P450; 2000 nM, in words) was “non-first-pass inhibiting” and the “first-pass effect inhibition” value (human cytochrome P450; in words) was “ineffective”.
In the case of `COc1c2ccoc2c(OC)c2oc(=O)ccc12` [isopimpinellin], the “first-pass effect inhibition” value (human cytochrome P450; in words) is reported as “ineffective”.
For `CCC(C)n1ncn(-c2ccc(N3CCN(c4ccc(OCC5COC(Cn6cncn6)(c6ccc(Cl)cc6Cl)O5)cc4)CC3)cc2)c1=O` (stereo not shown) [itraconazole], the “inhibition of the first-pass effect” value (first-pass effect) is given as “identified as inhibitors of the first-pass effect”.
In the case of `CC(=O)N1CCN(c2ccc(OCC3COC(Cn4ccnc4)(c4ccc(Cl)cc4Cl)O3)cc2)CC1` (stereo not shown) [ketoconazole], the “reduction of the dose of cyclosporin required” value [2] is given as “approximately 85%” and the “inhibition of the first-pass effect” value (first-pass effect) is given as “inhibition of the first-pass effect of cyclosporin; also recorded: identified as inhibitors of the first-pass effect”.
For `Clc1ccc(COC(Cn2ccnc2)c2ccc(Cl)cc2Cl)c(Cl)c1` (stereo not shown) [miconazole], the “inhibition of the first-pass effect” value (first-pass effect) is given as “identified as inhibitors of the first-pass effect”.
For `O=c1ccc2cc3ccoc3cc2o1` [psoralen], the “first-pass effect inhibition” value (human cytochrome P450; in words) is listed as “ineffective”, the “inhibition of cytochrome P450” value (cytochrome P450) is listed as “do inhibit cvtochrome P450” and the toxicity / phototoxicity [1] is listed as “toxic, in particular, phototoxic”.
For `CC(C)c1nc(CN(C)C(=O)N[C@H](C(=O)N[C@@H](Cc2ccccc2)C[C@H](O)[C@H](Cc2ccccc2)NC(=O)OCc2cncs2)C(C)C)cs1` [ritonavir], the “inhibition of the first-pass effect” value (first-pass effect) is listed as “identified as inhibitors of the first-pass effect”.
In the case of `Cc1nnc2n1-c1ccc(Cl)cc1C(c1ccccc1Cl)=NC2` [triazolam], the “increase of bioavailability by inhibitors” value [3] is listed as “bioavailability is increased by inhibitors”.
In the case of `CO[C@H]1C[C@H](O[C@H]2[C@H](C)[C@@H](O[C@@H]3O[C@H](C)C[C@H](N(C)C)[C@H]3OC(C)=O)[C@@H](C)C[C@@]3(CO3)C(=O)[C@H](C)[C@@H](OC(C)=O)[C@@H](C)[C@@H](C)OC(=O)[C@@H]2C)O[C@@H](C)[C@@H]1OC(C)=O` [troleandomycin], the “inhibition of the first-pass effect” value (first-pass effect) is listed as “identified as inhibitors of the first-pass effect”.
For `COc1c2occc2cc2ccc(=O)oc12` [xanthotoxin, 8-methoxypsoralen], the toxicity / phototoxicity [1] is listed as “toxic, in particular, phototoxic”.
